{"source": "paper PMC5811606", "about": "“Characterization of ^111In-labeled Glucose-Dependent Insulinotropic Polypeptide as a Radiotracer for Neuroendocrine Tumors” (Scientific Reports, 2018)", "assay": "Peptide dose escalation study, BHK-GIPR tumor mice", "format": "in vivo, BALB/c nude mice", "settings": "female, iv, total radioactivity; for tissue to tissue ratio at 4 h: BHK-GIPR tumor / blood, read-out: Tumor/Blood", "procedure": "All animal experiments were approved by the Animal Welfare Body of the Radboud University, Nijmegen, The Netherlands and carried out in accordance with their guidelines. Six to eight weeks old, female BALB/c nude mice and C3H mice were purchased from Janvier labs (Le Genest Saint Isle, France). For all in vivo experiments, 6-8 weeks old female BALB/c nude mice were injected subcutaneously in the right shoulder with 0.2 ml of a 2.5 × 10^7 cells/ml suspension of BHK-GIPR transfected cells or with 0.2 ml of a 2.5 × 10^7 cells/ml suspension of NES2Y cells mixed with matrigel (2:1) in the right shoulder. When the tumor reached a diameter of 2-5 mm, mice were randomly divided in groups.\nTo determine the optimal peptide dose of [Lys^37(DTPA)]N-acetyl-GIP1-42, BHK-GIPR transfected tumor bearing BALB/c nude mice (n = 5/group) were injected intravenously with approximately 3 MBq [Lys^37(^111In-DTPA)]N-acetyl-GIP1-42 (0.05 µg) in the tail vein and were co-injected with escalating amounts of unlabeled [Lys^37(DTPA)]N-acetyl-GIP1-42 (0.05 µg – 1.95 µg), resulting in final peptide doses ranging from 0.1 to 2 µg/mouse (0.02 – 0.4 nmol/mouse) (5 groups, n = 5/group). Four hours after injection, mice were euthanized by CO2/O2 suffocation and tumors and other relevant tissues (heart, muscle, lung, spleen, pancreas, kidney, liver, stomach and duodenum) were dissected, weighed and measured in a well type gamma counter. The percentage injected dose per gram of tissue (%ID/g) was determined for each tissue.", "note": "Where two headings read alike, the source gives them in different places."}
{"smiles": "CC[C@H](C)[C@H](NC(=O)[C@H](CO)NC(=O)[C@H](Cc1ccc(O)cc1)NC(=O)[C@H](CC(=O)O)NC(=O)[C@H](CO)NC(=O)[C@@H](NC(=O)[C@H](Cc1ccccc1)NC(=O)[C@@H](NC(=O)CNC(=O)[C@H](CCC(=O)O)NC(=O)[C@H](C)NC(=O)[C@H](Cc1ccc(O)cc1)NC(C)=O)[C@@H](C)O)[C@@H](C)CC)C(=O)N[C@@H](C)C(=O)N[C@@H](CCSC)C(=O)N[C@@H](CC(=O)O)C(=O)N[C@@H](CCCCN)C(=O)N[C@H](C(=O)N[C@@H](Cc1c[nH]cn1)C(=O)N[C@@H](CCC(N)=O)C(=O)N[C@@H](CCC(N)=O)C(=O)N[C@@H](CC(=O)O)C(=O)N[C@@H](Cc1ccccc1)C(=O)N[C@H](C(=O)N[C@@H](CC(N)=O)C(=O)N[C@@H](Cc1c[nH]c2ccccc12)C(=O)N[C@@H](CC(C)C)C(=O)N[C@@H](CC(C)C)C(=O)N[C@@H](C)C(=O)N[C@@H](CCC(N)=O)C(=O)N[C@@H](CCCCN)C(=O)NCC(=O)N[C@@H](CCCCN)C(=O)N[C@@H](CCCCN)C(=O)N[C@@H](CC(N)=O)C(=O)N[C@@H](CC(=O)O)C(=O)N[C@@H](Cc1c[nH]c2ccccc12)C(=O)N[C@@H](CCCCNC(=O)CN(CCN(CCN(CC(=O)O)CC(=O)O)CC(=O)O)CC(=O)O)C(=O)N[C@@H](Cc1c[nH]cn1)C(=O)N[C@@H](CC(N)=O)C(=O)N[C@H](C(=O)N[C@H](C(=O)N[C@@H](CCC(N)=O)C(=O)O)[C@@H](C)O)[C@@H](C)CC)C(C)C)[C@@H](C)CC", "note": "[[Lys^37(^111In-DTPA)]N-acetyl-GIP1-42, metal not drawn]", "values": [{"measurement": "tissue uptake at 4 h", "setting": "BALB/c nude, BHK-GIPR tumor, peptide doses ≤ 0.2 µg (0.04 nmol) per mouse, 4 hours post-injection, mean ± SD, n=5, read-out: tumor uptake", "result": "5.2 ± 1.4", "unit": "%ID/g"}, {"measurement": "tissue uptake at 4 h", "setting": "BALB/c nude, mouse, 0.5 ug/mouse, BHK-GIPR tumor, peptide dose 0.5 µg (0.1 nmol), 4 hours post-injection, mean ± SD, n=5, read-out: tumor uptake", "result": "2.4 ± 0.7", "unit": "%ID/g"}, {"measurement": "tissue to tissue ratio at 4 h", "setting": "mouse, 0.1 ug/mouse, BHK-GIPR tumor BALB/c nude mice, i.v., peptide dose 0.1 µg, 4 h p.i., mean n=5", "result": 143}, {"measurement": "tissue to tissue ratio at 4 h", "setting": "mouse, 0.2 ug/mouse, BHK-GIPR tumor BALB/c nude mice, i.v., peptide dose 0.2 µg, 4 h p.i., mean n=5", "result": 110}, {"measurement": "tissue to tissue ratio at 4 h", "setting": "mouse, 0.5 ug/mouse, BHK-GIPR tumor BALB/c nude mice, i.v., peptide dose 0.5 µg, 4 h p.i., mean n=5", "result": 52.6}, {"measurement": "tissue to tissue ratio at 4 h", "setting": "mouse, 1 ug/mouse, BHK-GIPR tumor BALB/c nude mice, i.v., peptide dose 1 µg, 4 h p.i., mean n=5", "result": 50.3}, {"measurement": "tissue uptake at 4 h", "setting": "mouse, blood, 0.1 ug/mouse, BHK-GIPR tumor BALB/c nude mice, i.v., peptide dose 0.1 µg, 4 h p.i., mean n=5, read-out: Blood uptake", "result": 0.033, "unit": "%ID/g"}, {"measurement": "tissue uptake at 4 h", "setting": "mouse, blood, 0.2 ug/mouse, BHK-GIPR tumor BALB/c nude mice, i.v., peptide dose 0.2 µg, 4 h p.i., mean n=5, read-out: Blood uptake", "result": 0.047, "unit": "%ID/g"}, {"measurement": "tissue uptake at 4 h", "setting": "mouse, blood, 0.5 ug/mouse, BHK-GIPR tumor BALB/c nude mice, i.v., peptide dose 0.5 µg, 4 h p.i., mean n=5, read-out: Blood uptake", "result": 0.047, "unit": "%ID/g"}, {"measurement": "tissue uptake at 4 h", "setting": "mouse, blood, 1 ug/mouse, BHK-GIPR tumor BALB/c nude mice, i.v., peptide dose 1 µg, 4 h p.i., mean n=5, read-out: Blood uptake", "result": 0.059, "unit": "%ID/g"}, {"measurement": "tissue uptake at 4 h", "setting": "mouse, blood, 2 ug/mouse, BHK-GIPR tumor BALB/c nude mice, i.v., peptide dose 2 µg, 4 h p.i., mean n=5, read-out: Blood uptake", "result": 0.066, "unit": "%ID/g"}, {"measurement": "tissue uptake at 4 h", "setting": "mouse, duodenum, 0.1 ug/mouse, BHK-GIPR tumor BALB/c nude mice, i.v., peptide dose 0.1 µg, 4 h p.i., mean n=5, read-out: Duodenum uptake", "result": 0.486, "unit": "%ID/g"}, {"measurement": "tissue uptake at 4 h", "setting": "mouse, duodenum, 0.2 ug/mouse, BHK-GIPR tumor BALB/c nude mice, i.v., peptide dose 0.2 µg, 4 h p.i., mean n=5, read-out: Duodenum uptake", "result": 0.573, "unit": "%ID/g"}, {"measurement": "tissue uptake at 4 h", "setting": "mouse, duodenum, 0.5 ug/mouse, BHK-GIPR tumor BALB/c nude mice, i.v., peptide dose 0.5 µg, 4 h p.i., mean n=5, read-out: Duodenum uptake", "result": 0.529, "unit": "%ID/g"}, {"measurement": "tissue uptake at 4 h", "setting": "mouse, duodenum, 1 ug/mouse, BHK-GIPR tumor BALB/c nude mice, i.v., peptide dose 1 µg, 4 h p.i., mean n=5, read-out: Duodenum uptake", "result": 0.75, "unit": "%ID/g"}, {"measurement": "tissue uptake at 4 h", "setting": "mouse, duodenum, 2 ug/mouse, BHK-GIPR tumor BALB/c nude mice, i.v., peptide dose 2 µg, 4 h p.i., mean n=5, read-out: Duodenum uptake", "result": 0.929, "unit": "%ID/g"}, {"measurement": "tissue uptake at 4 h", "setting": "mouse, heart, 0.1 ug/mouse, BHK-GIPR tumor BALB/c nude mice, i.v., peptide dose 0.1 µg, 4 h p.i., mean n=5, read-out: Heart uptake", "result": 0.133, "unit": "%ID/g"}, {"measurement": "tissue uptake at 4 h", "setting": "mouse, heart, 0.2 ug/mouse, BHK-GIPR tumor BALB/c nude mice, i.v., peptide dose 0.2 µg, 4 h p.i., mean n=5, read-out: Heart uptake", "result": 0.156, "unit": "%ID/g"}, {"measurement": "tissue uptake at 4 h", "setting": "mouse, heart, 0.5 ug/mouse, BHK-GIPR tumor BALB/c nude mice, i.v., peptide dose 0.5 µg, 4 h p.i., mean n=5, read-out: Heart uptake", "result": 0.163, "unit": "%ID/g"}, {"measurement": "tissue uptake at 4 h", "setting": "mouse, heart, 1 ug/mouse, BHK-GIPR tumor BALB/c nude mice, i.v., peptide dose 1 µg, 4 h p.i., mean n=5, read-out: Heart uptake", "result": 0.178, "unit": "%ID/g"}, {"measurement": "tissue uptake at 4 h", "setting": "mouse, heart, 2 ug, BHK-GIPR tumor BALB/c nude mice, i.v., peptide dose 2 µg, 4 h p.i., mean n=5, read-out: Heart uptake", "result": 0.173, "unit": "%ID/g"}, {"measurement": "tissue uptake at 4 h", "setting": "mouse, kidney, 0.1 ug/mouse, BHK-GIPR tumor BALB/c nude mice, i.v., peptide dose 0.1 µg, 4 h p.i., mean n=5, read-out: Kidney uptake", "result": 237, "unit": "%ID/g"}, {"measurement": "tissue uptake at 4 h", "setting": "mouse, kidney, 0.2 ug/mouse, BHK-GIPR tumor BALB/c nude mice, i.v., peptide dose 0.2 µg, 4 h p.i., mean n=5, read-out: Kidney uptake", "result": 265, "unit": "%ID/g"}, {"measurement": "tissue uptake at 4 h", "setting": "mouse, kidney, 0.5 ug/mouse, BHK-GIPR tumor BALB/c nude mice, i.v., peptide dose 0.5 µg, 4 h p.i., mean n=5, read-out: Kidney uptake", "result": 214, "unit": "%ID/g"}, {"measurement": "tissue uptake at 4 h", "setting": "mouse, kidney, 1 ug/mouse, BHK-GIPR tumor BALB/c nude mice, i.v., peptide dose 1 µg, 4 h p.i., mean n=5, read-out: Kidney uptake", "result": 287, "unit": "%ID/g"}, {"measurement": "tissue uptake at 4 h", "setting": "mouse, kidney, 2 ug/mouse, BHK-GIPR tumor BALB/c nude mice, i.v., peptide dose 2 µg, 4 h p.i., mean n=5, read-out: Kidney uptake", "result": 257, "unit": "%ID/g"}, {"measurement": "tissue uptake at 4 h", "setting": "mouse, liver, 0.1 ug/mouse, BHK-GIPR tumor BALB/c nude mice, i.v., peptide dose 0.1 µg, 4 h p.i., mean n=5, read-out: Liver uptake", "result": 1.6, "unit": "%ID/g"}, {"measurement": "tissue uptake at 4 h", "setting": "mouse, liver, 0.2 ug/mouse, BHK-GIPR tumor BALB/c nude mice, i.v., peptide dose 0.2 µg, 4 h p.i., mean n=5, read-out: Liver uptake", "result": 1.53, "unit": "%ID/g"}, {"measurement": "tissue uptake at 4 h", "setting": "mouse, liver, 0.5 ug/mouse, BHK-GIPR tumor BALB/c nude mice, i.v., peptide dose 0.5 µg, 4 h p.i., mean n=5, read-out: Liver uptake", "result": 1.55, "unit": "%ID/g"}, {"measurement": "tissue uptake at 4 h", "setting": "mouse, liver, 1 ug/mouse, BHK-GIPR tumor BALB/c nude mice, i.v., peptide dose 1 µg, 4 h p.i., mean n=5, read-out: Liver uptake", "result": 1.74, "unit": "%ID/g"}, {"measurement": "tissue uptake at 4 h", "setting": "mouse, liver, 2 ug/mouse, BHK-GIPR tumor BALB/c nude mice, i.v., peptide dose 2 µg, 4 h p.i., mean n=5, read-out: Liver uptake", "result": 1.83, "unit": "%ID/g"}, {"measurement": "tissue uptake at 4 h", "setting": "mouse, lung, 0.1 ug, BHK-GIPR tumor BALB/c nude mice, i.v., peptide dose 0.1 µg, 4 h p.i., mean n=5, read-out: Lung uptake", "result": 0.364, "unit": "%ID/g"}, {"measurement": "tissue uptake at 4 h", "setting": "mouse, lung, 0.2 ug, BHK-GIPR tumor BALB/c nude mice, i.v., peptide dose 0.2 µg, 4 h p.i., mean n=5, read-out: Lung uptake", "result": 0.518, "unit": "%ID/g"}, {"measurement": "tissue uptake at 4 h", "setting": "mouse, lung, 0.5 ug, BHK-GIPR tumor BALB/c nude mice, i.v., peptide dose 0.5 µg, 4 h p.i., mean n=5, read-out: Lung uptake", "result": 0.577, "unit": "%ID/g"}, {"measurement": "tissue uptake at 4 h", "setting": "mouse, lung, 1 ug, BHK-GIPR tumor BALB/c nude mice, i.v., peptide dose 1 µg, 4 h p.i., mean n=5, read-out: Lung uptake", "result": 0.608, "unit": "%ID/g"}, {"measurement": "tissue uptake at 4 h", "setting": "mouse, lung, 2 ug, BHK-GIPR tumor BALB/c nude mice, i.v., peptide dose 2 µg, 4 h p.i., mean n=5, read-out: Lung uptake", "result": 0.56, "unit": "%ID/g"}]}
